Source: ChEMBL document CHEMBL4251670, “Cyclopiamines C and D: Epoxide Spiroindolinone Alkaloids from Penicillium sp. CML 3020” (J Nat Prod, 2018)

Assays:
Aspergillus fumigatus = test: Antifungal activity against Aspergillus fumigatus ATCC 46645 measured after overnight incubation; format: functional
EVSA-T = test: Cytotoxicity against human EVSA-T cells after 72 hrs by CellTiter-Glo luminescent assay; format: functional, cell-based
Escherichia coli = test: Antibacterial activity against Escherichia coli MB2884 measured after overnight incubation; format: functional
[1] = Cytotoxicity against human MEC1 cells after 72 hrs by CellTiter-Glo luminescent assay; format: functional, cell-based; details: MEC1, 72 h
MDA-MB-231 = test: Cytotoxicity against human MDA-MB-231 cells after 72 hrs by CellTiter-Glo luminescent assay; format: functional, cell-based; details: MDA-MB-231, 72 h
Acinetobacter baumannii = test: Antibacterial activity against Acinetobacter baumannii MB5973 measured after overnight incubation; format: functional
[2] = Cytotoxicity against human NCH421K cells after 72 hrs by CellTiter-Glo luminescent assay; format: functional, cell-based
MCF7 = test: Cytotoxicity against human MCF7 cells after 72 hrs by CellTiter-Glo luminescent assay; format: functional, cell-based; details: MCF7, 72 h
Staphylococcus aureus = test: Antibacterial activity against methicillin-resistant Staphylococcus aureus MB5393 measured after overnight incubation; format: functional
Candida albicans = test: Antifungal activity against Candida albicans MY1055 measured after overnight incubation; format: functional
Klebsiella pneumoniae = test: Antibacterial activity against Klebsiella pneumoniae ATCC 700603 measured after overnight incubation; format: functional
Pseudomonas aeruginosa = test: Antibacterial activity against Pseudomonas aeruginosa MB5919 measured after overnight incubation; format: functional
SW480 = test: Cytotoxicity against human SW480 cells after 72 hrs by CellTiter-Glo luminescent assay; format: functional, cell-based; details: SW480, 72 h

| Structure (SMILES) | MIC (Aspergillus fumigatus) | IC50 (EVSA-T) | MIC (Escherichia coli) | IC50 [1] | IC50 (MDA-MB-231) | MIC (Acinetobacter baumannii) | IC50 [2] | IC50 (MCF7) | MIC (Staphylococcus aureus) | MIC (Candida albicans) | MIC (Klebsiella pneumoniae) | MIC (Pseudomonas aeruginosa) | IC50 (SW480) |
| --- | --- | --- | --- | --- | --- | --- | --- | --- | --- | --- | --- | --- | --- |
| CC1(C)[C@@H](O)C(=O)c2c(O)ccc3c2N1C(=O)[C@@]31C[C@]2([N+](=O)[O-])CN3C[C@@H]4O[C@@H]4[C@@H]3C[C@H]2C1(C)C | > 64 µg/mL | > 180 µM | > 64 µg/mL | > 180 µM | > 180 µM | > 64 µg/mL | > 180 µM | > 180 µM | > 64 µg/mL | > 64 µg/mL | > 64 µg/mL | > 64 µg/mL | > 180 µM |
| COc1ccc2c3c1C(=O)[C@H](O)C(C)(C)N3C(=O)[C@@]21C[C@]2([N+](=O)[O-])CN3C[C@@H]4O[C@@H]4[C@@H]3C[C@H]2C1(C)C | > 64 µg/mL | > 180 µM | > 64 µg/mL | > 180 µM | > 180 µM | > 64 µg/mL | > 180 µM | > 180 µM | > 64 µg/mL | > 64 µg/mL | > 64 µg/mL | > 64 µg/mL | > 180 µM |
